# From PubChem BioAssay (NCI)
#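 Dose response: 5 concentrations. Exposure: 48 h. Format: 96-well plates. Endpoint: linear interpolation; highest concentration if not reached. Definition used: TGI = concentration required for complete inhibition of growth.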
# Experiments:
# Assay in all cases: DTP human tumour cell line panel, 48 h
# 786-0 renal = system: 786-0 renal
# A498 renal = system: A498 renal
# A549 NSCLC = system: A549 NSCLC
# ACHN renal = system: ACHN renal
# BT-549 breast = system: BT-549 breast
# CAKI-1 renal = system: CAKI-1 renal
# CCRF-CEM leukemia = system: CCRF-CEM leukemia
# COLO 205 colon = system: COLO 205 colon
# DU-145 prostate = system: DU-145 prostate
# EKVX NSCLC = system: EKVX NSCLC
# HCT-116 colon = system: HCT-116 colon
# HCT-15 colon = system: HCT-15 colon
# HL-60(TB) leukemia = system: HL-60(TB) leukemia
# HOP-62 NSCLC = system: HOP-62 NSCLC
# HOP-92 NSCLC = system: HOP-92 NSCLC
# HS 578T breast = system: HS 578T breast
# HT29 colon = system: HT29 colon
# IGROV1 ovarian = system: IGROV1 ovarian
# K-562 leukemia = system: K-562 leukemia
# LOX IMVI melanoma = system: LOX IMVI melanoma
# M14 melanoma = system: M14 melanoma
# MALME-3M melanoma = system: MALME-3M melanoma
# MCF7 breast = system: MCF7 breast
# MDA-MB-231 breast = system: MDA-MB-231 breast
# MDA-MB-435 = system: MDA-MB-435
# MDA-N = system: MDA-N
# MOLT-4 leukemia = system: MOLT-4 leukemia
# NCI-H226 lung = system: NCI-H226 lung
# NCI-H23 lung = system: NCI-H23 lung
# NCI-H522 lung = system: NCI-H522 lung
# NCI/ADR-RES ovarian = system: NCI/ADR-RES ovarian
# OVCAR-3 ovarian = system: OVCAR-3 ovarian
# OVCAR-4 ovarian = system: OVCAR-4 ovarian
# OVCAR-5 ovarian = system: OVCAR-5 ovarian
# OVCAR-8 ovarian = system: OVCAR-8 ovarian
# PC-3 prostate = system: PC-3 prostate
# RPMI-8226 leukemia = system: RPMI-8226 leukemia
# RXF 393 renal = system: RXF 393 renal
# SF-295 CNS = system: SF-295 CNS
# SF-539 CNS = system: SF-539 CNS
# SK-MEL-2 melanoma = system: SK-MEL-2 melanoma
# SK-MEL-5 melanoma = system: SK-MEL-5 melanoma
# SK-OV-3 ovarian = system: SK-OV-3 ovarian
# SN12C renal = system: SN12C renal
# SNB-19 CNS = system: SNB-19 CNS
# SNB-75 CNS = system: SNB-75 CNS
# SR leukemia = system: SR leukemia
# T-47D breast = system: T-47D breast
# TK-10 renal = system: TK-10 renal
# U251 CNS = system: U251 CNS
# UACC-257 melanoma = system: UACC-257 melanoma
# UACC-62 melanoma = system: UACC-62 melanoma
# UO-31 renal = system: UO-31 renal
# KM12 colon = system: KM12 colon
# NCI-H460 lung = system: NCI-H460 lung
# SF-268 CNS = system: SF-268 CNS
# SK-MEL-28 melanoma = system: SK-MEL-28 melanoma
# SW-620 colon = system: SW-620 colon
structure (smiles),measurement,setting,value
S=C(NC/C(Br)=C/Br)Nc1cccc2ccccc12,TGI,786-0 renal,> 100 µM
same,TGI,A498 renal,90.4 µM
same,TGI,A549 NSCLC,> 100 µM
same,TGI,ACHN renal,86.6 µM
same,TGI,BT-549 breast,84.6 µM
same,TGI,CAKI-1 renal,> 100 µM
same,TGI,CCRF-CEM leukemia,66.2 µM
same,TGI,COLO 205 colon,32.7 µM
same,TGI,DU-145 prostate,> 100 µM
same,TGI,EKVX NSCLC,> 100 µM
same,TGI,HCT-116 colon,61.9 µM
same,TGI,HCT-15 colon,> 100 µM
same,TGI,HL-60(TB) leukemia,37.3 µM
same,TGI,HOP-62 NSCLC,94 µM
same,TGI,HOP-92 NSCLC,55.9 µM
same,TGI,HS 578T breast,> 100 µM
same,TGI,HT29 colon,> 100 µM
same,TGI,IGROV1 ovarian,> 100 µM
same,TGI,K-562 leukemia,31 µM
same,TGI,LOX IMVI melanoma,> 100 µM
same,TGI,M14 melanoma,43.7 µM
same,TGI,MALME-3M melanoma,78.8 µM
same,TGI,MCF7 breast,44.4 µM
same,TGI,MDA-MB-231 breast,51.3 µM
same,TGI,MDA-MB-435,> 100 µM
same,TGI,MDA-N,72.7 µM
same,TGI,MOLT-4 leukemia,46.8 µM
same,TGI,NCI-H226 lung,> 100 µM
same,TGI,NCI-H23 lung,74.5 µM
same,TGI,NCI-H522 lung,74.6 µM
same,TGI,NCI/ADR-RES ovarian,50.9 µM
same,TGI,OVCAR-3 ovarian,71.8 µM
same,TGI,OVCAR-4 ovarian,> 100 µM
same,TGI,OVCAR-5 ovarian,> 100 µM
same,TGI,OVCAR-8 ovarian,> 100 µM
same,TGI,PC-3 prostate,71.7 µM
same,TGI,RPMI-8226 leukemia,44.7 µM
same,TGI,RXF 393 renal,> 100 µM
same,TGI,SF-295 CNS,> 100 µM
same,TGI,SF-539 CNS,69.1 µM
same,TGI,SK-MEL-2 melanoma,48.5 µM
same,TGI,SK-MEL-5 melanoma,34.3 µM
same,TGI,SK-OV-3 ovarian,> 100 µM
same,TGI,SN12C renal,53.1 µM
same,TGI,SNB-19 CNS,> 100 µM
same,TGI,SNB-75 CNS,> 100 µM
same,TGI,SR leukemia,> 100 µM
same,TGI,T-47D breast,> 100 µM
same,TGI,TK-10 renal,> 100 µM
same,TGI,U251 CNS,> 100 µM
same,TGI,UACC-257 melanoma,> 100 µM
same,TGI,UACC-62 melanoma,67.7 µM
same,TGI,UO-31 renal,55.2 µM
N#CC(C#N)N=Nc1ccc(-c2nc3ccccc3[nH]2)cc1,TGI,786-0 renal,70.9 µM
same,TGI,A498 renal,> 100 µM
same,TGI,A549 NSCLC,> 100 µM
same,TGI,ACHN renal,29 µM
same,TGI,BT-549 breast,36.3 µM
same,TGI,CAKI-1 renal,82.6 µM
same,TGI,CCRF-CEM leukemia,36.8 µM
same,TGI,COLO 205 colon,21.8 µM
same,TGI,DU-145 prostate,39.6 µM
same,TGI,EKVX NSCLC,> 100 µM
same,TGI,HCT-116 colon,43.2 µM
same,TGI,HCT-15 colon,58.7 µM
same,TGI,HL-60(TB) leukemia,1.38 µM
same,TGI,HOP-62 NSCLC,> 100 µM
same,TGI,HOP-92 NSCLC,49.6 µM
same,TGI,HS 578T breast,> 100 µM
same,TGI,HT29 colon,> 100 µM
same,TGI,IGROV1 ovarian,37.9 µM
same,TGI,K-562 leukemia,> 100 µM
same,TGI,KM12 colon,> 100 µM
same,TGI,LOX IMVI melanoma,32.7 µM
same,TGI,M14 melanoma,52.3 µM
same,TGI,MALME-3M melanoma,28 µM
same,TGI,MCF7 breast,37.6 µM
same,TGI,MDA-MB-231 breast,35.5 µM
same,TGI,MDA-MB-435,40 µM
same,TGI,MDA-N,50.6 µM
same,TGI,MOLT-4 leukemia,> 100 µM
same,TGI,NCI-H226 lung,> 100 µM
same,TGI,NCI-H23 lung,66 µM
same,TGI,NCI-H460 lung,> 100 µM
same,TGI,NCI-H522 lung,22.9 µM
same,TGI,NCI/ADR-RES ovarian,43.2 µM
same,TGI,OVCAR-3 ovarian,37.8 µM
same,TGI,OVCAR-4 ovarian,68.9 µM
same,TGI,OVCAR-5 ovarian,> 100 µM
same,TGI,OVCAR-8 ovarian,47.7 µM
same,TGI,PC-3 prostate,50.4 µM
same,TGI,RPMI-8226 leukemia,> 100 µM
same,TGI,RXF 393 renal,34.8 µM
same,TGI,SF-268 CNS,66.4 µM
same,TGI,SF-295 CNS,> 100 µM
same,TGI,SF-539 CNS,35.5 µM
same,TGI,SK-MEL-2 melanoma,64 µM
same,TGI,SK-MEL-28 melanoma,52 µM
same,TGI,SK-MEL-5 melanoma,> 100 µM
same,TGI,SK-OV-3 ovarian,> 100 µM
same,TGI,SN12C renal,> 100 µM
same,TGI,SNB-19 CNS,> 100 µM
same,TGI,SNB-75 CNS,> 100 µM
same,TGI,SR leukemia,> 100 µM
same,TGI,SW-620 colon,46.9 µM
same,TGI,T-47D breast,55.7 µM
same,TGI,TK-10 renal,73.4 µM
same,TGI,U251 CNS,> 100 µM
same,TGI,UACC-257 melanoma,40.9 µM
same,TGI,UO-31 renal,31.1 µM
Nc1ccc2nc3n(c(=O)c2c1)CCCCC3,TGI,786-0 renal,> 100 µM
same,TGI,A498 renal,> 100 µM
same,TGI,A549 NSCLC,> 100 µM
same,TGI,ACHN renal,> 100 µM
same,TGI,BT-549 breast,> 100 µM
same,TGI,CAKI-1 renal,> 100 µM
same,TGI,CCRF-CEM leukemia,> 100 µM
same,TGI,COLO 205 colon,> 100 µM
same,TGI,DU-145 prostate,> 100 µM
same,TGI,EKVX NSCLC,> 100 µM
same,TGI,HCT-116 colon,> 100 µM
same,TGI,HCT-15 colon,> 100 µM
same,TGI,HL-60(TB) leukemia,> 100 µM
same,TGI,HOP-62 NSCLC,> 100 µM
same,TGI,HOP-92 NSCLC,> 100 µM
same,TGI,HS 578T breast,> 100 µM
same,TGI,HT29 colon,> 100 µM
same,TGI,IGROV1 ovarian,> 100 µM
same,TGI,K-562 leukemia,> 100 µM
same,TGI,KM12 colon,> 100 µM
same,TGI,LOX IMVI melanoma,> 100 µM
same,TGI,M14 melanoma,> 100 µM
same,TGI,MALME-3M melanoma,> 100 µM
same,TGI,MCF7 breast,> 100 µM
same,TGI,MDA-MB-231 breast,> 100 µM
same,TGI,MDA-MB-435,> 100 µM
same,TGI,MDA-N,> 100 µM
same,TGI,MOLT-4 leukemia,> 100 µM
same,TGI,NCI-H226 lung,> 100 µM
same,TGI,NCI-H23 lung,> 100 µM
same,TGI,NCI-H460 lung,> 100 µM
same,TGI,NCI-H522 lung,> 100 µM
same,TGI,NCI/ADR-RES ovarian,> 100 µM
same,TGI,OVCAR-3 ovarian,> 100 µM
same,TGI,OVCAR-4 ovarian,> 100 µM
same,TGI,OVCAR-5 ovarian,> 100 µM
same,TGI,OVCAR-8 ovarian,> 100 µM
same,TGI,PC-3 prostate,> 100 µM
same,TGI,RPMI-8226 leukemia,> 100 µM
same,TGI,RXF 393 renal,> 100 µM
same,TGI,SF-268 CNS,> 100 µM
same,TGI,SF-295 CNS,> 100 µM
same,TGI,SF-539 CNS,> 100 µM
same,TGI,SK-MEL-2 melanoma,> 100 µM
same,TGI,SK-MEL-28 melanoma,> 100 µM
same,TGI,SK-MEL-5 melanoma,> 100 µM
same,TGI,SK-OV-3 ovarian,> 100 µM
same,TGI,SN12C renal,> 100 µM
same,TGI,SNB-75 CNS,> 100 µM
same,TGI,SR leukemia,> 100 µM
same,TGI,SW-620 colon,> 100 µM
same,TGI,T-47D breast,> 100 µM
same,TGI,TK-10 renal,> 100 µM
same,TGI,U251 CNS,> 100 µM
same,TGI,UACC-257 melanoma,> 100 µM
same,TGI,UACC-62 melanoma,> 100 µM
same,TGI,UO-31 renal,> 100 µM
